# According to patent publication US4620014A, “2-furylbutyrolactones and methods for using same” (priority 1983, dated 1986):
# Read-outs that look alike come from different tables or passages of the source.
# Tests used:
# C57BL/6 mice = conditions: 10 mice per dose
# Description: Single dose LD50 in C57BL/6 mice for Cpd. 1 is determined following the method of Spearman and Karber described in Basic Exercises in Immunochemistry, 1979. Briefly, 0.5 ml of each dose is given to each of ten mice. The survivors are counted after 3 days and the LD50 is calculated using the following formula: [formula] where D=fold diferences between doses, R=total number dead, and N=total number of animals tested.
# [1] = tested on: spleen lymphocytes of BALB/C mice; conditions: 4 days
# Description: The purpose of this assay is to challenge lymphocytes in microcultures with one or more polyclonal mitogens at concentrations that will induce mitogenesis within 72 hours of stimulation.
# In the mouse model, spleens are removed from different strains of mice and the spleen cells are teased free and suspended in RPMI-1640 tissue culture medium at a concentration of usually 1×10^7 ml. These cells are dispensed at a concentration of 5.0×10^5 cells per microculture well in a 96 well flat bottom 96 well tissue culture plate. All testing of the compounds of this invention or mitogens are done in replicates of 10. The cells are then treated with PHA, Con-A, specific antigens, or buffer only. If in vitro testing is done, varying concentrations of the compounds of this invention or buffer only are added to the cells as well. After treatment with the mitogens and/or compounds of this invention, the cells are incubated for 72 hours. The response of these cells to mitogens and/or the compounds of this invention is assessed using ^14 C-thymidine labeling on the fourth day at a concentration of 0.01 μCi/well. The labeled cells are harvested using a lymphocyte harvestor and placed onto fibrous paper discs. […] The data is expressed as a ratio of the cpm of the mitogen stimulated group to the control (non-mitogen) treated group=lymphocyte stimulation index (LSI). […]
# [2] = tested on: antibody response to bovine serum albumin (BSA); conditions: for stimulation of antibody response to BSA: day 13
# From the text: The effect of the compounds of this invention on the immune response to specific antigens involves immunization of mice with specific anitgens such as bovine serum albumin (BSA) or keyhole limpet hemocyanin (KLH). Following immunization, it is possible to assess the cell-mediated or humoral (antibody) immune response to these antigens by various methods:
# (2) Antibody response to soluble antigens such as BSA or KLH can be quantitated using a micro-ELISA solid phase heterogeneous immunoassay. The assay can be designed to quantitate class specific immunoglobulins (i.e., IgG or IgM).
# The cut-off for the titer was the highest dilution of mouse serum yielding an O.D.≤0.1 when read on the MR-600 Dynatech micro-ELISA reader.
# Mice of the C57BL/6 strain are given i.p. injections of either 50, 100, 200 or 400 mg/kg of Cpd. 1 or buffer for twelve days (days 1-12). An antigen, bovine serum albumin (BSA), is administered intraperitoneally with Freund's Complete Adjuvant (FCA) on days 1, 7 and 14. Blood samples are taken for assay of the antibody response on days 0, 5, 13, and 19.
# FLC-745 cells = test: MLTC assay of CTL activity, FLC-745 target cells; assay type: cell-based
# From the text: A mixed lymphocyte tumor culture (MLTC) immunoassay, used to determine the cytotoxic lymphocyte (CTL) activity employs lymphocytes from either immunized (sensitized) mice or DBA/2 tumor dormant state animals in various stages of the tumor dormant state (TDS). The assay employs L5178Y target cells labeled with ^51 Chromium and effector cells (sensitized lymphocytes) from the above-mentioned sources. Effector-target cell ratios will vary with different experimental conditions and may or may not include irradiated stimulator L5178Y cells. Results are expressed as % lysis of target cells based on ratio of cpm of test group over cpm of total release (maximum) both of which are corrected for spontaneous release of ^51 Cr. The assay can be performed as an 8 or 18 hour release assay.
# An MLTC assay is performed to assess the CTL activity and tumor target cell specificity of Cpd. 1. Tumor dormant spleen cells and normal spleen cells of DBA/2 mice are used as effector cells. Irradiated L5178Y cells are used as stimulator cells. ^51 Cr-labeled L5178Y cells and FLC-745 cells are used as target cells. The effector/target ratios studied are 100:1, 30:1 and 10:1.
compound,measurement,setting,value
Cc1ccc(C2(O)C(=O)OC3C(O)COC32O)o1.Cc1ccc(C2(O)C(=O)OC3C(O)COC32O)o1.O=C1CCC(=O)O1 (centres unmarked) [Cpd. 1],Number Dead on Day 3,"C57BL/6 mice; single i.p. 1,000 mg/kg",0
same,Number Dead on Day 3,"C57BL/6 mice; single i.p. 2,000 mg/kg",0
same,Number Dead on Day 3,"C57BL/6 mice; single i.p. 4,000 mg/kg",7
same,Number Dead on Day 3,"C57BL/6 mice; single i.p. 8,000 mg/kg",10
same,Number Dead on Day 3,"C57BL/6 mice; single i.p. 16,000 mg/kg",10
same,DNA synthesis of spleen cell lymphocytes,"[1]; 400 mg/kg, compared to 200 mg/kg",suppress DNA synthesis
same,"lymphocyte DNA synthesis, PHA and Con-A","[1]; 50, 100 and 200 mg/kg i.p.",tend to stimulate lymphocyte DNA synthesis
same,Micro-ELISA Titer,"[2]; 50 mg/kg i.p., day 5",N/R
same,Micro-ELISA Titer,"[2]; 50 mg/kg i.p., prebleed",N/R
same,antibody titer over the control,"[2]; 50 mg/kg, day 19",slight increase
same,Micro-ELISA Titer,"[2]; 100 mg/kg i.p., day 5",N/R
same,Micro-ELISA Titer,"[2]; 100 mg/kg i.p., prebleed",N/R
same,Micro-ELISA Titer,"[2]; 200 mg/kg i.p., day 5",N/R
same,Micro-ELISA Titer,"[2]; 200 mg/kg i.p., prebleed",N/R
same,Micro-ELISA Titer,"[2]; 400 mg/kg i.p., day 5",N/R
same,Micro-ELISA Titer,"[2]; 400 mg/kg i.p., prebleed",N/R
same,stimulation of antibody response to BSA,[2]; 50 and 100 mg/kg,slight amount of stimulation
same,increase of antibody response to BSA over controls,"[2]; 100 and 200 mg/kg, day 19",16 fold
same,stimulation of antibody response to BSA,[2]; 200 and 400 mg/kg,significant (four-fold) stimulation
same,% Lysis,"FLC-745 cells; E + D (TDS effector, no stimulator), E/T 10:1",0.7%
same,% Lysis,"FLC-745 cells; E + D (TDS effector, no stimulator), E/T 30:1",4.6%
same,% Lysis,"FLC-745 cells; E + D (TDS effector, no stimulator), E/T 100:1",6.6%
same,% Lysis,"FLC-745 cells; E + S + D (TDS effector, stimulator), E/T 10:1",0.5%
same,% Lysis,"FLC-745 cells; E + S + D (TDS effector, stimulator), E/T 30:1",3.6%
same,% Lysis,"FLC-745 cells; E + S + D (TDS effector, stimulator), E/T 100:1",13.4%
same,enhancement of CTL activity,FLC-745 cells; FLC-745 target system (Example 28),not observed
same,% Lysis,"FLC-745 cells; N + D (normal effector, no stimulator), E/T 10:1",-3.5%
same,% Lysis,"FLC-745 cells; N + D (normal effector, no stimulator), E/T 30:1",0.9%
same,% Lysis,"FLC-745 cells; N + D (normal effector, no stimulator), E/T 100:1",13.9%
same,% Lysis,"FLC-745 cells; N + S + D (normal effector, stimulator), E/T 10:1",-1.1%
same,% Lysis,"FLC-745 cells; N + S + D (normal effector, stimulator), E/T 30:1",-0.8%
same,% Lysis,"FLC-745 cells; N + S + D (normal effector, stimulator), E/T 100:1",5.8%
